In patent US20250011348A1, “Synthesis Process of X-IPM, Stable Crystal Form and Application Thereof” (ASCENTAWITS PHARMACEUTICALS, LTD., priority 2023, published 2025):
Where two headings read alike, the source gives them in different places.

Protocol: On different days, samples were taken at the same time for analysis and detection of related substances, and their contents were recorded.

## isophosphoramide nitrogen mustard [Br-IPM]
Placed at 40° C.
  Stability of the Br-IPM crystals on storage (in words): unstable
Stored at 2-8° C., day 0
  Br-IPM content in the analysis of related substances: 93.23%
Stored at 2-8° C., day 3
  Br-IPM content in the analysis of related substances: 93.28%
Stored at 2-8° C., day 4
  Br-IPM content in the analysis of related substances: 95.06%
Stored at 2-8° C., day 5
  Br-IPM content in the analysis of related substances: 94.29%
Stored at 2-8° C., day 6
  Br-IPM content in the analysis of related substances: 94.56%
Stored at 2-8° C., day 7
  Br-IPM content in the analysis of related substances: 95.57%
Stored at 2-8° C., day 10
  Br-IPM content in the analysis of related substances: 95.17%
Stored at 2-8° C., day 11
  Br-IPM content in the analysis of related substances: 95.07%
Stored at 2-8° C., day 12
  Br-IPM content in the analysis of related substances: 95.07%
Stored at 2-8° C., day 13
  Br-IPM content in the analysis of related substances: 95.44%
Stored at 2-8° C., day 14
  Br-IPM content in the analysis of related substances: 95.25%
Stored at 2-8° C., day 17
  Br-IPM content in the analysis of related substances: 95.76%
Stored at 2-8° C., day 21
  Br-IPM content in the analysis of related substances: 95.19%
Stored at 2-8° C., day 28
  Br-IPM content in the analysis of related substances: 96.22%
Stored at 2-8° C., day 35
  Br-IPM content in the analysis of related substances: 95.09%
Stored at 25° C. (room temperature)
  Time for which the Br-IPM crystals are relatively stable / can be stored: 28 days
Stored at 25° C., day 0
  Br-IPM content in the analysis of related substances: 93.23%
Stored at 25° C., day 3
  Br-IPM content in the analysis of related substances: 94.17%
Stored at 25° C., day 4
  Br-IPM content in the analysis of related substances: 94.89%
Stored at 25° C., day 5
  Br-IPM content in the analysis of related substances: 94.53%
Stored at 25° C., day 6
  Br-IPM content in the analysis of related substances: 94.32%
Stored at 25° C., day 7
  Br-IPM content in the analysis of related substances: 93.86%
Stored at 25° C., day 10
  Br-IPM content in the analysis of related substances: 94.64%
Stored at 25° C., day 11
  Br-IPM content in the analysis of related substances: 95.25%
Stored at 25° C., day 12
  Br-IPM content in the analysis of related substances: 94.97%
Stored at 25° C., day 13
  Br-IPM content in the analysis of related substances: 95.28%
Stored at 25° C., day 14
  Br-IPM content in the analysis of related substances: 94.61%
Stored at 25° C., day 17
  Br-IPM content in the analysis of related substances: 94.75%
Stored at 25° C., day 21
  Br-IPM content in the analysis of related substances: 93.81%
Stored at 25° C., day 28
  Br-IPM content in the analysis of related substances: 94.01%
Stored at 25° C., day 35
  Br-IPM content in the analysis of related substances: 91.42%
Stored at 40° C., day 0
  Br-IPM content in the analysis of related substances: 93.23%
Stored at 40° C., day 3
  Br-IPM content in the analysis of related substances: 86.36%
Stored at −5° C., day 0
  Br-IPM content in the analysis of related substances: 93.23%
Stored at −5° C., day 3
  Br-IPM content in the analysis of related substances: 94.65%
Stored at −5° C., day 4
  Br-IPM content in the analysis of related substances: 95.12%
Stored at −5° C., day 5
  Br-IPM content in the analysis of related substances: 94.07%
Stored at −5° C., day 6
  Br-IPM content in the analysis of related substances: 95.48%
Stored at −5° C., day 7
  Br-IPM content in the analysis of related substances: 94.96%
Stored at −5° C., day 10
  Br-IPM content in the analysis of related substances: 95.03%
Stored at −5° C., day 11
  Br-IPM content in the analysis of related substances: 95.50%
Stored at −5° C., day 12
  Br-IPM content in the analysis of related substances: 95.04%
Stored at −5° C., day 13
  Br-IPM content in the analysis of related substances: 95.23%
Stored at −5° C., day 14
  Br-IPM content in the analysis of related substances: 95.28%
Stored at −5° C., day 17
  Br-IPM content in the analysis of related substances: 95.07%
Stored at −5° C., day 21
  Br-IPM content in the analysis of related substances: 95.30%
Stored at −5° C., day 28
  Br-IPM content in the analysis of related substances: 94.83%
Stored at −5° C., day 35
  Br-IPM content in the analysis of related substances: 94.64%
